Several values for one entry are separate records, joined by “and”; a condition that tells them apart may be missing. Equal values may be shown once.
How the values were obtained:
[1] = tested on: Escherichia coli; assay: Inhibitory activity (Enzyme inhibition index) against dihydropteroate synthase from Escherichia coli.
[2] = tested on: Escherichia coli; assay: Inhibitory activity (apE=log(1/EII50)) against dihydropteroate synthase from Escherichia coli

SMILES | EII50 [1] | apE [2]
COc1ccc(S(=O)(=O)c2ccc(N)cc2)c(OC)c1 | 3.21 | -0.51
COc1cc(C)cc(C)c1S(=O)(=O)c1ccc(N)cc1 | 3.02 | -0.48
Nc1ccc(S(=O)(=O)c2ccc(Cl)cc2Cl)cc1 | 2.24 | -0.35
COc1cc(C)c(S(=O)(=O)c2ccc(N)cc2)c(C)c1 | 1.77 | -0.25
Nc1ccc(S(=O)(=O)c2ccc(O)cc2O)cc1 | 0.51 and 0.71 | 0.29 and 0.15
Nc1ccc(S(=O)(=O)c2ccc([N+](=O)[O-])cc2[N+](=O)[O-])cc1 | 36.3 | -1.56
Nc1ccc(S(=O)(=O)c2c(Cl)cc(Cl)cc2Cl)cc1 | 3.31 | -0.52
Nc1ccc(S(=O)(=O)c2ccc(O)cc2Cl)cc1 | 0.26 | 0.59 and 0.58
Nc1ccc(S(=O)(=O)c2ccc(N)cc2)cc1 | 2.64 | -0.42
COc1cc(OC)c(S(=O)(=O)c2ccc(N)cc2)c(OC)c1 | 12.9 | -1.11
Cc1cc(O)ccc1S(=O)(=O)c1ccc(N)cc1 | 0.23 and 0.34 | 0.66 and 0.47
Cc1ccc(S(=O)(=O)c2ccc(N)cc2)c(C)c1 | 1.89 | -0.28
Nc1ccc(S(=O)(=O)c2ccc(N)cc2N)cc1 | 1.59 | -0.2
Nc1ccc(S(=O)(=O)c2c(O)cc(O)cc2O)cc1 | 1.91 and 1.46 | 
Cc1cc(O)cc(C)c1S(=O)(=O)c1ccc(N)cc1 | 0.51 and 0.25 | 0.29 and 0.59
COc1ccc(S(=O)(=O)c2ccc(N)cc2)c(C)c1 | 1.77 | -0.25
Cc1cc(C)c(S(=O)(=O)c2ccc(N)cc2)c(C)c1 | 1.69 | -0.23

— ChEMBL document CHEMBL1124359, “Quantitative structure-activity relationships in dihydropteroate synthase inhibition by multisubstituted sulfones. Design and synthesis of some new derivatives with improved potency” (J Med Chem, 1989)
